Data published in US20240076297A1, “ADENOSINE A2A AND A2B RECEPTOR DUAL ANTAGONISTS FOR IMMUNO-ONCOLOGY” (Merck Sharp & Dohme LLC, priority 2020, published 2024).

biological target: human A2A adenosine receptor (Homo sapiens (Human), UniProt P29274); test: A2A binding affinity using radioligand binding, Method (A); conditions: Method (A): filtration radioligand binding, [3H] SCH58261, membranes expressing human A2A
Text: Method (A) describes the procedure used to measure A2A binding affinity using radioligand binding. Method (B) describes the procedure used to measure A2A binding affinity using SPA technology. The method used to measure A2B binding affinity is also described below. The method used to determine the A2A IC50 value reported for each compound in the table is indicated next to the reported value. The A2B IC50 value measured using the A2B binding affinity assay is shown in the table next to the compound under the corresponding A2A value.
The A2A receptor affinity binding assay measured the amount of binding of a tritiated ligand with high affinity for the A2A adenosine receptor to membranes made from HEK293 or CHO cells recombinantly expressing the human A2A adenosine receptor, in the presence of varying concentrations of a compound of the invention. The data were generated using either filtration binding or a homogenous scintillation proximity assay (SPA).
Method (A): Measurement of A2A Binding Affinity Using Radioligand Binding
148 μL (5 μg/mL) membranes (Perkin Elmer, Cat. No. RBHA2aM400UA) and 2 μL compounds of the invention to be tested (test compound) were transferred to individual wells of a 96-well polypropylene assay plate and incubated for 15 to 30 min at room temperature. [^3H] SCH58261 ((7-(2-phenylethyl)-5-amino-2-(2-furyl)-pyrazolo-[4,3-e]-1,2,4-triazolo[1,5-c]pyrimidine)) was diluted in assay buffer (50 mM Tris pH 7.4, 10 mM MgCl2, 0.005% Tween20) to a concentration of 4 nM and 50 μL transferred to each well of the assay plate. To define total and non-specific binding, wells containing 1% DMSO and 1 μM ZM241385 (Tocris Bioscience, Cat. No. 1036) respectively, were also included. The assay plate was incubated at room temperature for 60 min with agitation. Using a FilterMate Harvester® (Perkin Elmer), the contents of the assay plate were filtered through a UniFilter-96® PEI coated plate (Perkin Elmer Cat. No. 6005274 or 6005277). Filtering was achieved by aspirating the contents of the assay plate for 5 sec, then washing and aspirating the contents three times with ice-cooled wash buffer (50 mM Tris-HCl pH 7.4, 150 mM NaCl) and allowing the vacuum manifold to dry the plate for 30 sec. The filter plate was incubated for at least 1 h at 55° C. and allowed to dry. The bottom of the filter plate was sealed with backing tape. 40 μL Ultima Gold™ (Perkin Elmer, Cat. No. 6013329) was added to each well of the filter plate and the top of the plate was sealed with TopSeal-A PLUS® clear plate seal (Perkin Elmer, Cat. No. 6050185). The plate was incubated for at least 20 min, and then the amount of radioactivity remaining in each well was determined using a TopCount® (Perkin Elmer) scintillation counter. After normalization to total and non-specific binding, the percent effect at each compound concentration was calculated. The plot of percent effect versus the log of compound concentration was analyzed electronically using a 4-parameter logistic fit based on the Levenberg-Marquardt algorithm to generate IC50 values.

Chain of human A2A adenosine receptor (P29274 whole entry): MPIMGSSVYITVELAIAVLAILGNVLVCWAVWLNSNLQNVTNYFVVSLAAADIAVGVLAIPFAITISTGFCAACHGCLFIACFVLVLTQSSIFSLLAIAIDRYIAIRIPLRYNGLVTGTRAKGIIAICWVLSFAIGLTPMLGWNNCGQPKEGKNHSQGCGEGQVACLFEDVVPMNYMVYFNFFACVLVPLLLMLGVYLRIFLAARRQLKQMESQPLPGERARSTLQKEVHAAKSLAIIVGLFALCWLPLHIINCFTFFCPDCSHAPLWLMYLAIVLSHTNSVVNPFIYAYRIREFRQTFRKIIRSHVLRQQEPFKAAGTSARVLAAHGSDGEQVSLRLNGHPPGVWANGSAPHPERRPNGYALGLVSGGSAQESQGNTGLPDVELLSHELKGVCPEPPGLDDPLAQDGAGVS

Row | Compound | IC50
1 | COc1cccc2c1nc(N)n1nc(COC3CCc4c(nnn4C4CC(F)(F)C4)C3)nc21 (single isomer, unassigned) [Example 2.2A, (S or R)-2-(((1-(3,3-difluorocyclobutyl)-4,5,6,7-tetrahydro-1H-benzo[d][1,2,3]triazol-5-yl)oxy)methyl)-7-methoxy-[1,2,4]triazolo[1,5-c]quinazolin-5-amine] | 3.4 nM
2 | COc1cccc2c1nc(N)n1nc(COC3CCc4c(nnn4C4CC(F)(F)C4)C3)nc21 (single isomer, unassigned) [Example 2.2B, (R or S)-2-(((1-(3,3-difluorocyclobutyl)-4,5,6,7-tetrahydro-1H-benzo[d][1,2,3]triazol-5-yl)oxy)methyl)-7-methoxy-[1,2,4]triazolo[1,5-c]quinazolin-5-amine] | 0.6 nM
3 | COc1cccc2c1nc(N)n1nc(CCC3CCc4c(nnn4C(C)C)C3)nc21 (single isomer, unassigned) [Example 5.2A, (S or R)-2-(2-(1-isopropyl-4,5,6,7-tetrahydro-1H-benzo[d][1,2,3]triazol-5-yl)ethyl)-7-methoxy-[1,2,4]triazolo[1,5-c]quinazolin-5-amine] | 0.7 nM
4 | COc1cc(F)cc2c1nc(N)n1nc(CCC3CCc4nn(C(C)C)cc4C3)nc21 (single isomer, unassigned) [Example 5.4B, (R or S)-9-fluoro-2-(2-(2-isopropyl-4,5,6,7-tetrahydro-2H-indazol-5-yl)ethyl)-7-methoxy-[1,2,4]triazolo[1,5-c]quinazolin-5-amine] | 5.5 nM
5 | COc1cccc2c1nc(N)n1nc(CCC3CCc4nn(C(C)C)cc4C3)nc21 (single isomer, unassigned) [Example 7.2A, (S or R)-2-(2-(2-isopropyl-4,5,6,7-tetrahydro-2H-indazol-5-yl)ethyl)-7-methoxy-[1,2,4]triazolo[1,5-c]quinazolin-5-amine] | 2.5 nM
6 | COc1cc(F)cc2c1nc(N)n1nc(CCC3CCn4c(cnc4C4CC(F)(F)C4)C3)nc21 (single isomer, unassigned) [Example 7.3A, (S or R)-2-(2-(3-(3,3-difluorocyclobutyl)-5,6,7,8-tetrahydroimidazo-[1,5-a]pyridin-7-yl)ethyl)-9-fluoro-7-methoxy-[1,2,4]triazolo[1,5-c]-quinazolin-5-amine] | 2.8 nM
7 | Nc1nc2c(F)cc(F)cc2c2nc(CCC3CCn4c(cnc4C4CC(F)(F)C4)C3)nn12 (single isomer, unassigned) [Example 7.4A, (S or R)-2-(2-(3-(3,3-difluorocyclobutyl)-5,6,7,8-tetrahydroimidazo-[1,5-a]pyridin-7-yl)ethyl)-7,9-difluoro-[1,2,4]triazolo[1,5-c]-quinazolin-5-amine] | 31.6 nM
8 | COc1cccc2c1nc(N)n1nc(CCC3CCn4c(cnc4C4CC(F)(F)C4)C3)nc21 (single isomer, unassigned) [Example 7.5A, (S or R)-2-(2-(3-(3,3-difluorocyclobutyl)-5,6,7,8-tetrahydroimidazo-[1,5-a]pyridin-7-yl)ethyl)-7-methoxy-[1,2,4]triazolo[1,5-c]-quinazolin-5-amine] | 2.2 nM
9 | COc1cccc2c1nc(N)n1nc(CCC3CCn4c(cnc4C4CC(F)(F)C4)C3)nc21 (single isomer, unassigned) [Example 7.5B, (R or S)-2-(2-(3-(3,3-difluorocyclobutyl)-5,6,7,8-tetrahydroimidazo-[1,5-a]pyridin-7-yl)ethyl)-7-methoxy-[1,2,4]triazolo[1,5-c]-quinazolin-5-amine] | 0.5 nM
10 | COc1cc(F)cc2c1nc(N)n1nc(CCC3CCc4c(nnn4C4CC(F)(F)C4)C3)nc21 (single isomer, unassigned) [Example 7.6A, (S or R)-2-(2-(1-(3,3-difluorocyclobutyl)-4,5,6,7-tetrahydro-1H-benzo[d][1,2,3]triazol-5-yl)ethyl)-9-fluoro-7-methoxy-[1,2,4]-triazolo[1,5-c]quinazolin-5-amine] | 1 nM
11 | COc1cccc2c1nc(N)n1nc(CCC3CCc4c(cnn4C(C)C)C3)nc21 (single isomer, unassigned) [Example 7.8A, (S or R)-2-(2-(1-isopropyl-4,5,6,7-tetrahydro-1H-indazol-5-yl)-ethyl)-7-methoxy-[1,2,4]triazolo[1,5-c]quinazolin-5-amine] | 2.1 nM
12 | COc1cccc2c1nc(N)n1nc(CCC3CCc4c(cnn4C(C)C)C3)nc21 (single isomer, unassigned) [Example 7.8B, (R or S)-2-(2-(1-isopropyl-4,5,6,7-tetrahydro-1H-indazol-5-yl)ethyl)-7-methoxy-[1,2,4]triazolo[1,5-c]quinazolin-5-amine] | 2.4 nM

Continued by falling IC50, values first:

Row | IC50 | Compound
13 | 10.2 nM | COc1cc(F)cc2c1nc(N)n1nc(CC3CC3c3ccc(C(C)(C)N)cc3)nc21 (single isomer, unassigned) [Example 8.4A, 2-(((1S, 2R or 1R,2S)-2-(4-(2-aminopropan-2-yl)phenyl)-cyclopropyl)methyl)-9-fluoro-7-methoxy-[1,2,4]triazolo-[1,5-c]quinazolin-5-amine]
14 | 5.5 nM | COc1cc(F)cc2c1nc(N)n1nc(CCC3CCc4c(cnn4C(C)C)C3)nc21 (single isomer, unassigned) [Example 7.7A, (S or R)-9-fluoro-2-(2-(1-isopropyl-4,5,6,7-tetrahydro-1H-indazol-5-yl)ethyl)-7-methoxy-[1,2,4]triazolo[1,5-c]quinazolin-5-amine]
15 | 4.7 nM | COc1cccc2c1nc(N)n1nc(CC3CC3c3ccc(C(C)(C)N)cc3)nc21 (single isomer, unassigned) [Example 8.5A, 2-(((1S,2R or 1R,2S)-2-(4-(2-aminopropan-2-yl)phenyl)-cyclopropyl)methyl)-7-methoxy-[1,2,4]triazolo-[1,5-c]quinazolin-5-amine]
16 | 4.6 nM | COc1cc(F)cc2c1nc(N)n1nc(CCC3CCn4c(cnc4C4CC(F)(F)C4)C3)nc21 (single isomer, unassigned) [Example 7.3B, (R or S)-2-(2-(3-(3,3-difluorocyclobutyl)-5,6,7,8-tetrahydroimidazo-[1,5-a]pyridin-7-yl)ethyl)-9-fluoro-7-methoxy-[1,2,4]triazolo[1,5-c]-quinazolin-5-amine]
17 | 4.2 nM | COc1cc(F)cc2c1nc(N)n1nc(CCC3CCc4c(nnn4C4CC(F)(F)C4)C3)nc21 (single isomer, unassigned) [Example 7.6B, (R or S)-2-(2-(1-(3,3-difluorocyclobutyl)-4,5,6,7-tetrahydro-1H-benzo[d][1,2,3]triazol-5-yl)ethyl)-9-fluoro-7-methoxy-[1,2,4]-triazolo[1,5-c]quinazolin-5-amine]
18 | 2.6 nM | COc1cc(F)cc2c1nc(N)n1nc(CCC3CCc4c(cnn4C(C)C)C3)nc21 (single isomer, unassigned) [Example 7.7B, (R or S)-9-fluoro-2-(2-(1-isopropyl-4,5,6,7-tetrahydro-1H-indazol-5-yl)ethyl)-7-methoxy-[1,2,4]triazolo[1,5-c]quinazolin-5-amine]
19 | 2.3 nM | COc1cccc2c1nc(N)n1nc(CCC3CCc4nn(C(C)C)cc4C3)nc21 (single isomer, unassigned) [Example 7.2B, (R or S)-2-(2-(2-isopropyl-4,5,6,7-tetrahydro-2H-indazol-5-yl)ethyl)-7-methoxy-[1,2,4]triazolo[1,5-c]quinazolin-5-amine]
20 | 0.9 nM | COc1cccc2c1nc(N)n1nc(CCC3CCc4c(nnn4C4CC(F)(F)C4)C3)nc21 (single isomer, unassigned) [Example 5.3A, (S or R)-2-(2-(1-(3,3-difluorocyclobutyl)-4,5,6,7-tetrahydro-1H-benzo[d][1,2,3]triazol-5-yl)ethyl)-7-methoxy-[1,2,4]triazolo-[1,5-c]quinazolin-5-amine]
21 | 0.3 nM | COc1cccc2c1nc(N)n1nc(CC3CC3c3ccc(C(C)(C)O)cc3)nc21 (single isomer, unassigned) [Example 8.6B, 2-(4-((1R,2S or 1S,2S)-2-((5-amino-7-methoxy-[1,2,4]triazolo-[1,5-c]quinazolin-2-yl)methyl)cyclopropyl)phenyl)propan-2-ol]
